According to article PMC8278147, “Synthesis of New 1H-1,2,3-Triazole Analogs in Aqueous Medium via “Click” Chemistry: A Novel Class of Potential Carbonic Anhydrase-II Inhibitors” (Frontiers in Chemistry, 2021):

Target: T1, bovine carbonic anhydrase-II enzyme (Bos taurus, UniProt P00921)
T1 construct: In vitro experiment of bovine erythrocyte CA-II was conducted in HEPES-Tris buffer; from tissue; host or cells: bovine erythrocytes
Assay: In vitro carbonic anhydrase-II inhibition assay (p-nitrophenylacetate substrate)
Assay type: biochemical
Conditions: bovine erythrocyte CA-II, HEPES-Tris buffer pH 7.4, 25°C, substrate p-nitrophenylacetate 0.7 mM, triplicate
Method: In vitro experiment of bovine erythrocyte CA-II was conducted in HEPES-Tris buffer (20 mM) to maintain the pH 7.4. The purified was dissolved in HEPES-Tris buffer (0.1 mg/ml), and the reaction mixture was comprised of 140 μL of the HEPES-Tris buffer, 20 μL of the enzyme, and 20 μL of test compound (prepared in DMSO) and was incubated for 15 min at 25°C. After completion of the preincubation, the reaction was started by adding instantly the substrate p-nitrophenylacetate (P-NPA) at a concentration of 0.7 mM and prepared in methanol. To initiate the reaction, the 96-well plate was placed in a microplate reader and continuous product formation was monitored with a one-minute time interval for 30 min at 400 nm. The assay temperature was strictly controlled and kept at 25°C. All the reaction was conducted in triplicate, and the results are presented as mean.

T1 sequence (P00921 whole entry): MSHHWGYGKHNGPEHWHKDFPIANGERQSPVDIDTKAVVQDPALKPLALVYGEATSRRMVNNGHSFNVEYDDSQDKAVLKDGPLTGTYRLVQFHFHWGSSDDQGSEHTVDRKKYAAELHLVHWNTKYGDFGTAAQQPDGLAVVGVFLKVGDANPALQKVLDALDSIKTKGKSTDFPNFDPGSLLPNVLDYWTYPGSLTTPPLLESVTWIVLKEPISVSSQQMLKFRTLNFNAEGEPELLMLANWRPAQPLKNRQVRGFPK

SMILES: COc1cc(Br)ccc1O[C@H](C)Cn1cc(-c2ccc(N)cc2)nn1 [Compound 7b, (R)-4-(1-(2-(4-Bromo-2-methoxyphenoxy)propyl)-1H-1,2,3-triazol-4-yl)aniline]
- IC50: 13.8 ± 0.63 µM
